Measurements from patent EP0923551B1, “4-AMINOETHOXY INDOLONE DERIVATIVES” (AMERICAN HOME PRODUCTS CORPORATION, priority 1996, dated 1998).

Target: dopamine autoreceptor (Rattus norvegicus, UniProt P61169)
Assay: Affinity for the dopamine autoreceptor, 3H-quinpirole binding in homogenized rat striatal brain tissue
Settings: for IC50: 3H-quinpirole, homogenized rat striatal brain tissue, read-out: IC50 (nM) D2 Quin.; for Ratio: ratio of IC50 D2 Spiper to IC50 D2 Quin. (LowAg/HighAg, predicts intrinsic activity)

Sequence of dopamine autoreceptor (P61169 whole entry): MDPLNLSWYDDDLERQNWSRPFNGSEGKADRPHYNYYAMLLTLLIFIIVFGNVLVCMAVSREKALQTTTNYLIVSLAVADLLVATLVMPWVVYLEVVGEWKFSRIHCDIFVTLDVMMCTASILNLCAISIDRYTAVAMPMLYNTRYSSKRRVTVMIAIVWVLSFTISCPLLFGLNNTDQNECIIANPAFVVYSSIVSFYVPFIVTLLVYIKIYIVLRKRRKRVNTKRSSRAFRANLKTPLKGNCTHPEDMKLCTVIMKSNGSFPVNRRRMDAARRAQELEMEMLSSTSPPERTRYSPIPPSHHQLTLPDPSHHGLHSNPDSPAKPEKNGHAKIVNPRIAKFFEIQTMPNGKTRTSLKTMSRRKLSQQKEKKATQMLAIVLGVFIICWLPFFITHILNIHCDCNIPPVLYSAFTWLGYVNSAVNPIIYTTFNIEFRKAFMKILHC

SMILES | IC50 [nM] | Ratio
O=C1Cc2c(cccc2OCCNCc2ccccc2)N1 [Example 1, 4-(2-Benzylaminoethoxy)-1,3-dihydro-indol-2-one] | 0.41 | 354
CNCCOc1cccc2c1CC(=O)N2 [Example 2, 4-(2-Methylamino-ethoxy)-1,3-dihydro-indol-2-one] | 4.31 | 213
NCCOc1cccc2c1CC(=O)N2 [Example 3, 4-(2-Amino-ethoxy)-1,3-dihydro-indol-2-one] | 13.9 | 246
O=C1Cc2c(OCCNCc3ccc(F)cc3)ccc(Cl)c2N1 [Example 4] | 2.54 | 69
O=C1Cc2c(OCCNCc3ccc(Cl)cc3)ccc(Cl)c2N1 [Example 5] | 2.81 | 19
Cc1ccc(CNCCOc2ccc(Cl)c3c2CC(=O)N3)cc1 [Example 6] | 1.1 | 52
CN(CCOc1ccc(Cl)c2c1CC(=O)N2)Cc1ccccc1 [Example 7, 4-[2-(N-Benzyl-N-methyl-amino)-ethoxy]-7-chloro-1,3-dihydro-indol-2-one] | 3.68 | 63
CCCCNCCOc1ccc(Cl)c2c1CC(=O)N2 [Example 8, 4-(2-Butylamino-ethoxy)-7-chloro-1,3-dihydro-indol-2-one] | 1.89 | 76
O=C1Cc2c(OCCN3CCc4ccccc4C3)ccc(Cl)c2N1 [Example 9, 7-Chloro-4-[2-(3,4-dihydro-1H-isoquinolin-2-yl)-ethoxy]-1,3-dihydro-indol-2-one] | 1.31 | 62
O=C1Cc2c(OCCN3Cc4ccccc4C3)ccc(Cl)c2N1 [Example 10, 7-Chloro-4-[2-(1,3-dihydro-isoindol-2-yl)-ethoxy]-1,3-dihydro-indol-2-one] | 0.55 | 

Results, then the compound that gave them:

IC50 [nM] | Ratio | SMILES
41.1 |  | O=C1Cc2c(OCCNCc3ccc(-c4ccccc4)cc3)ccc(Cl)c2N1 [Example 11, 4-{2-[(Biphenyl-4-ylmethyl)-amino]-ethoxy}-7-chloro-1,3-dihydro-indol-2-one]
0.45 | 55 | O=C1Cc2c(cccc2OCCNCCCCc2ccccc2)N1 [Example 13]
0.82 | 44 | O=C1Cc2c(OCCNCc3ccccc3)ccc(Cl)c2N1 [Example 14, 4-(2-Benzylamino-ethoxy)-7-chloro-1,3-dihydro-indol-2-one]
0.91 | 76 | O=C1Cc2c(OCCNCc3ccccc3)ccc(F)c2N1 [Example 15, 4-(2-Benzylamino-ethoxy)-7-fluoro-1,3-dihydro-indol-2-one]
1.58 | 63 | O=C1Cc2c(OCCNCC3CCCCC3)ccc(F)c2N1 [Example 16, 4-[2-(Cyclohexylmethyl-amino)-ethoxy)-7-fluoro-1,3-dihydro-indol-2-one]
0.3 |  | O=C1Cc2c(OCCNCCCc3c[nH]c4ccccc34)ccc(F)c2N1 [Example 18, 4-{2-[3-(1H-Indol-yl)-propylamino]-ethoxy}-7-fluoro-1,3-dihydro-indol-2-one]
3.57 |  | O=C1Cc2c(OCCN3Cc4ccccc4C3)ccc(F)c2N1 [Example 19, 4-[2-(1,3-Dihydro-isoindol-2-yl)-ethoxy]-7-fluoro-1,3-dihydro-indol-2-one]
11.1 |  | O=C1Cc2c(OCCNCc3ccc(-c4ccccc4)cc3)ccc(F)c2N1 [Example 20, 4-{2-[(Biphenyl-4-ylmethyl)-amino]-ethoxy}-7-fluoro-1,3-dihydro-indol-2-one]
1.27 |  | O=C1Cc2c(OCCNCc3ccc4ccccc4c3)ccc(F)c2N1 [Example 21, 7-Fluoro-4-{2-[(napthalen-2-ylmethyl)-aminol]-ethoxy}-1,3-dihydro-indol-2-one]
1.84 |  | O=C1Cc2c(OCCN3CCc4ccccc4C3)ccc(F)c2N1 [Example 22, 4-[2-(3,4-Dihydro-1H-isoquinolin-2-yl)-ethoxy]-7-fluoro-1,3-dihydro-indol-2-one]
1.52 | 424 | CN(CCOc1cccc2c1CC(=O)N2)Cc1ccccc1 [Example 25, 4-[2-(Benzyl-methyl-amino)-ethoxy]-1,3-dihydro-indol-2-one]
31.2 | 619 | Cc1cccc(CN(CCOc2cccc3c2CC(=O)N3)Cc2cccc(C)c2)c1 [Example 26, 4-{2-[Bis-(3-methyl-benzyl)-amino]-ethoxy}-1,3-dihydro-indol-2-one]
6.22 | 57 | CN(CCCC(=O)c1ccc(F)cc1)CCOc1cccc2c1CC(=O)N2 [Example 27, 4-(2-{[4-(4-Fluoro-phenyl)-4-oxo-butyl]-methyl-amino}-ethoxy)-1,3-dihydro-indol-2-one]
